Data as given in article PMC7470070, “Discovery of N-(1-(3-fluorobenzoyl)-1H-indol-5-yl)pyrazine-2-carboxamide: a novel, selective, and competitive indole-based lead inhibitor for human monoamine oxidase B” (Journal of Enzyme Inhibition and Medicinal Chemistry, 2020).
Entries after “also recorded” stand apart in the source; their conditions may differ. Like-named read-outs stand apart in the source and are kept apart here.

Tests used:
[1] = target: T1, Human recombinant MAO-B (hMAO-B) (Homo sapiens, UniProt P27338); experiment: Monoamine oxidase enzyme assay (Amplex Red), MAO-B; assay type: biochemical; conditions: for inhibition at 10 µM: read-out: Inhibition percent of MAO-B; for IC50: as given in abstract; for SI (selectivity index), IC50 (MAO-A)/IC50 (MAO-B): selectivity for the MAO-B isoform
T1 construct: purchased Sigma-Aldrich (St. Louis, MO); host or cells: insect cells
T1 sequence (P27338 1-520): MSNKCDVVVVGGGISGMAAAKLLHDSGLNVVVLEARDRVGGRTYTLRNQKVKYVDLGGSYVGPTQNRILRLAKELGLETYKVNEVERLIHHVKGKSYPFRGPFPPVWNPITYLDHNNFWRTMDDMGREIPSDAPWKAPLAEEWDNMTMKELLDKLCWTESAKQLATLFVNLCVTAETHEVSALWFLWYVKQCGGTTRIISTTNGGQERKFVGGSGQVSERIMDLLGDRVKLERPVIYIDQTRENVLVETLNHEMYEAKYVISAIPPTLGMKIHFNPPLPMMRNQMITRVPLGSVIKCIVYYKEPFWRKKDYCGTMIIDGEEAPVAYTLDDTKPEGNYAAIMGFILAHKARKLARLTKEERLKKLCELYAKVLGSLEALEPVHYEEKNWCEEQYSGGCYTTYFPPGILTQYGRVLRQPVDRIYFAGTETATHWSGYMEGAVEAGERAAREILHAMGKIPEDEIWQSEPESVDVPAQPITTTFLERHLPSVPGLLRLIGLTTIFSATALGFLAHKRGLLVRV
Procedure: (§1) The inhibitory activity of MAO-A, B enzyme of the compounds was evaluated based on previously described method. The MAO activity was measured in relative fluorescence units (RFUs) evoked by peroxidase-catalyzed oxidation of Amplex Red® to resorufin, in which H2O2 generated by MAO reaction was used as the electron donor. Human recombinant MAO-A (hMAO-A) and MAO-B (hMAO-B) enzyme expressed in insect cells were obtained from Sigma-Aldrich (St. Louis, MO). The 2 μL of test compound in DMSO (final concentration: 1 nM to 10 μM) was treated with 98 μL of hMAO enzyme solution in 50 mM sodium phosphate buffer (pH 7.4, final protein amounts: ∼1.25 μg protein/well for MAO-A and ∼2.5 μg protein/well for MAO-B) on 96-well black plate and incubated for 15 min at 37 °C. Then, 100 μL of reaction working solution which is mixed solution of 400 μM Amplex Red® (Cayman, Ann Arbor, MI, final concentration: 200 μM), 2 U/mL horseradish peroxidase (Sigma-Aldrich, St. Louis, MO, final concentration: 1 U/mL) and 2 mM substrate (p-tyramine for MAO-A, benzylamine for MAO-B, Sigma-Aldrich, St. Louis, MO, final concentration: 1 mM) in 50 mM sodium phosphate buffer (pH 7.4) were added and incubated for 20 min at 37 °C in the dark. The fluorescent intensity was quantified using a microplate reader (SpectraMax®i3, Molecular Devices, Sunnyvale, CA) with an excitation at 545 nm and an emission at 590 nm. The 50% inhibitory concentrations (IC50) of compounds were determined as the mean ± SEM in triplicate from the dose–response inhibition curves using SigmaPlot® 13.0 (Palo Alto, CA).
The target compounds 4a−l were biologically evaluated for their potential inhibitory activities over human MAO-B recombinant enzyme. The enzyme inhibition assay of the tested compounds was conducted using Amplex® Red reagent technology which offers quantitative enzyme activity sensitive detection with extended dynamic range compared to classic colorimetric oxidase assays in addition to its advantage of the fluorescence emission outside the range of compound autofluorescence (if any). Since Amplex® Red reagent is a colourless substrate able to react with H2O2 with a 1:1 stoichiometry to yield highly fluorescent resorufin, the elicited inhibitory activities of the tested compounds over MAO-B were evaluated via spectrophotometrical measurement and the fluorescence rate of the resorufin dye formation was detected. As mentioned previously, all the target compounds were designed to incorporate the same amide moiety in VI and VII at position 5 of the indole scaffold connecting one of three different heteroaromatic cycles with the indole core which is substituted with either aromatic or aliphatic moiety. […] In addition, we noticed that the benzyl and benzoyl moieties, bearing the electron-withdrawing 3- or 4-fluoro groups in 4a−f, exerted better inhibition than the pyridylmethyl substituent (4g−i). […] It is also noteworthy to mention that the three different heteroaryl cycles incorporated in our design (pyridazine, pyrazine, and pyridine) were represented in each of the last three compounds.
The inhibitory potencies (IC50 values) of compounds producing inhibition of MAO-B activity by more than 50% were determined using five doses assay with 10, 1, 0.1, 0.01, and 0.001 μM concentrations of the tested compounds. Consequently, analogues 4b and 4e were further evaluated to determine their IC50 over MAO-B in triplicate from the dose response inhibition curves using Sigma-Plot software version 13.0 as indicated in Figure 3.

human MAO-B = test system: human MAO-B; design: method as in PMID 24955776; conditions: cited from earlier work
MAO-A = test system: MAO-A; design: method as in PMID 24955776; conditions: cited from earlier work
[2] = target: T2, Human recombinant MAO-A (hMAO-A) (Homo sapiens, UniProt P21397); experiment: Monoamine oxidase enzyme assay (Amplex Red), MAO-A selectivity assay; assay type: biochemical; conditions: for inhibition at 100 µM: single dose of 100 µM of compound
T2 construct: purchased Sigma-Aldrich (St. Louis, MO); host or cells: insect cells
T2 sequence (P21397 1-527): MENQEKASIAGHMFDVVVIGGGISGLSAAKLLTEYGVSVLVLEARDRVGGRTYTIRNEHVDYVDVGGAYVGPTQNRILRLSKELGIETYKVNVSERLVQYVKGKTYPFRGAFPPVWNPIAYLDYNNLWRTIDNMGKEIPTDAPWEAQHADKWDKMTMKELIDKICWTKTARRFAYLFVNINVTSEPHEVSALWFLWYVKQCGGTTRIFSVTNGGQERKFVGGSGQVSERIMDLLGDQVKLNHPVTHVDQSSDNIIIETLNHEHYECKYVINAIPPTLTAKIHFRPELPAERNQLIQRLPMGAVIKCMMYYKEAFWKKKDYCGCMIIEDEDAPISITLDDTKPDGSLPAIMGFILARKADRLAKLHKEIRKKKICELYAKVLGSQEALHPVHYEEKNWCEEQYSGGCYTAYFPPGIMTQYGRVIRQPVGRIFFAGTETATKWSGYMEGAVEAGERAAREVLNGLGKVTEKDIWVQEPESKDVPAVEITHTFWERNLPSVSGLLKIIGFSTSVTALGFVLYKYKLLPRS
Procedure: as §1
It is known that non-selective (MAO-A/B combined) inhibitors lead to several problems when taken concomitantly with tyramine-containing foods (such as cheese) since the drug's inhibition of MAO-A causes a dangerous elevation of serum tyramine levels, which can cause hypertensive symptoms. […] To calculate the selectivity index (SI: the selectivity for the MAO-B isoform given as the ratio of IC50 (MAO-A)/IC50 (MAO-B)), IC50 values of both compounds have been identified and found to be more than 100 µM. Consequently, the selectivity indices were calculated as illustrated in Table 2.

hMAO-B enzyme = target: T3, hMAO-B enzyme (Homo sapiens, UniProt P27338); experiment: Kinetic study of MAO-B inhibition mode (Michaelis-Menten, Lineweaver-Burk); assay type: biochemical
T3 construct: purchased Sigma-Aldrich (St. Louis, MO); host or cells: insect cells
T3 sequence (P27338 1-520): T1 sequence (P27338 1-520)
Procedure: The type of MAO-B inhibition of compound 4e was determined by the Michaelis–Menten kinetic study. The catalytic rates of hMAO-B enzyme in the absence or in the presence of three different concentrations (10, 30, and 100 nM) of compound 4e were measured at seven different concentrations of the benzylamine (0.065, 0.125, 0.25, 0.5, 1, 2, and 4 mM). The corresponding progression curves and the Lineweaver–Burk plots were generated using GraphPad Prism 7 (La Jolla, CA). The maximal velocity (Vmax), the Michaelis constant (Km), and the inhibition constant (Ki) were calculated using SigmaPlot® 13.0 (Palo Alto, CA).
Detailed substrate-dependent kinetic experiments were carried out to examine the mode of MAO-B inhibition of compound 4e. The initial rates of MAO-B inhibition in the absence and presence of 4e were measured at various concentrations of benzylamine, a selective substrate for MAO-B, and both Michaelis–Menten and the Lineweaver–Burk plots are depicted in Figure 4. The Lineweaver–Burk plots for three different concentration of 4e were linear and intersected at the y-axis.

[3] = single dose of 10 µM of compound

melting point [°C] | inhibition at 10 µM [1, 3] [%] | SMILES | also measured
141.8 to 143 | 1.83 ± 0.75 | O=C(Nc1ccc2c(ccn2Cc2ccccn2)c1)c1ccnnc1 [4g, N-(1-(pyridin-2-ylmethyl)-1H-indol-5-yl)pyridazine-4-carboxamide] | 
196.7 to 196.9 | 19.1 ± 0.47 | O=C(Nc1ccc2c(ccn2C(=O)c2cccc(F)c2)c1)c1ccnnc1 [4d, N-(1-(3-fluorobenzoyl)-1H-indol-5-yl)pyridazine-4-carboxamide] | 
 |  | C#CCN[C@@H]1CCc2ccccc21 [rasagiline] | SI (selectivity index) for MAO-B (human MAO-B; calculated SI): > 50
164.2 to 164.9 | 11.6 | Cn1ccc2cc(NC(=O)c3cccnc3)ccc21 [4l, N-(1-methyl-1H-indol-5-yl)nicotinamide] | 
212.9 to 214.2 | 30.29 ± 0.24 | O=C(Nc1ccc2c(ccn2C(=O)c2cccc(F)c2)c1)c1cccnc1 [4f, N-(1-(3-fluorobenzoyl)-1H-indol-5-yl)nicotinamide] | 
 |  | O=C(Nc1ccc2[nH]ncc2c1)c1cccc(Cl)c1Cl [VI] | IC50 (MAO-A): > 10 µM; IC50 (human MAO-B): 2.59 µM
 |  | O=C(Nc1ccc2c(ccn2Cc2ccc(F)cc2)c1)c1cnccn1 [4b, N-(1-(4-fluorobenzyl)-1H-indol-5-yl)pyrazine-2-carboxamide] | IC50 [2]: > 100 µM; inhibition at 100 µM [2]: 12.9 ± 1.09%; IC50 [1]: 1.65 µM; inhibition at 10 µM [1]: 88.49 ± 0.13%; SI (selectivity index), IC50 (MAO-A)/IC50 (MAO-B) [1]: >60
172.5 to 174 | 49.7 ± 0.68 | Cn1ccc2cc(NC(=O)c3cnccn3)ccc21 [4k, N-(1-methyl-1H-indol-5-yl)pyrazine-2-carboxamide] | 
 |  | O=C(Nc1ccc2[nH]ncc2c1)c1c(F)cccc1Cl [VII] | IC50 (MAO-A): > 10 µM; IC50 (human MAO-B): 3.3 µM
 |  | Cn1cc(C(=O)Nc2ccc3[nH]ncc3c2)ccc1=O [V] | IC50 (MAO-A): > 10 µM; Activity over human MAO-B (in words) (human MAO-B): totally inactive; IC50 (human MAO-B): > 10 µM
221.3 to 222.2 | 66.4 ± 0.79 | O=C(Nc1ccc2c(ccn2C(=O)c2cccc(F)c2)c1)c1cnccn1 [4e, N-(1-(3-fluorobenzoyl)-1H-indol-5-yl)pyrazine-2-carboxamide] | Mode of MAO-B inhibition (hMAO-B enzyme; Lineweaver-Burk plots intersected at the y-axis): competitive; also recorded: reversible; Ki (hMAO-B enzyme; substrate benzylamine, 10, 30, 100 nM of 4e, read-out: Inhibition constant (Ki) MAO-B): 0.0945 µM; IC50 [2]: > 100 µM; inhibition at 100 µM [2]: 4.76 ± 0.59%; IC50 [1]: 0.78 µM; SI (selectivity index), IC50 (MAO-A)/IC50 (MAO-B) [1]: >120
200 to 200.4 | 11.2 ± 0.24 | O=C(Nc1ccc2c(ccn2Cc2ccc(F)cc2)c1)c1cccnc1 [4c, N-(1-(4-fluorobenzyl)-1H-indol-5-yl)nicotinamide] | 
181.1 to 182 | 9.52 ± 0.61 | Cn1ccc2cc(NC(=O)c3ccnnc3)ccc21 [4j, N-(1-methyl-1H-indol-5-yl)pyridazine-4-carboxamide] | 
142.9 to 144.3 | 1.81 ± 0.85 | O=C(Nc1ccc2c(ccn2Cc2ccccn2)c1)c1cccnc1 [4i, N-(1-(pyridin-2-ylmethyl)-1H-indol-5-yl)nicotinamide] | 
212.6 to 213.1 | 13.2 ± 3.32 | O=C(Nc1ccc2c(ccn2Cc2ccc(F)cc2)c1)c1ccnnc1 [4a, N-(1-(4-fluorobenzyl)-1H-indol-5-yl)pyridazine-4-carboxamide] | 
152 to 152.9 | 2.38 ± 0.66 | O=C(Nc1ccc2c(ccn2Cc2ccccn2)c1)c1cnccn1 [4h, N-(1-(pyridin-2-ylmethyl)-1H-indol-5-yl)pyrazine-2-carboxamide] | 
